Patent publication US7189747B2, “Method of treating noninflammatory cartilage damage” (Warner-Lambert Company, priority 2000, dated 2007)
Counter-ions that a name gives are not always drawn.

Columns and labels:
[1] = system: Monosodium Iodoacetate-Induced Osteoarthritis in Rat; assay: MIA Rat: hind-paw weight distribution; format: in vivo; details: for % Inhibition (of cartilage damage, hind-paw weight distribution): 14 days, Day 14; for preventing or treating cartilage damage (conclusion from Table 5): MIA Rat, doses and routes of Table 5
Text: One end result of the induction of osteoarthritis in this model, as determined by histologic analysis, is the development of an osteoarthritic condition within the affected joint, as characterized by the loss of Toluidine blue staining and formation of osteophytes. Associated with the histologic changes is a concentration-dependent degradation of joint cartilage, as evidenced by affects on hind-paw weight distribution of the limb containing the affected joint, the presence of increased amounts of proteoglycan or hydroxyproline in the joint upon biochemical analysis, or histopathological analysis of the osteoarthritic lesions.
In the MIA Rat model on Day 0, the hind-paw weight differential between the right arthritic joint and the left healthy joint of male Wistar rats (150 g) were determined with an incapacitance tester, model 2KG (Linton Instrumentation, Norfolk, United Kingdom). The incapacitance tester has a chamber on top with an outwardly sloping front wall that supports a rat's front limbs, and two weight sensing pads, one for each hind paw, that facilitates this determination. Then the rats were anesthetized with isofluorine, and the right, hind leg knee joint was injected with 1.0 mg of mono-iodoacetate (“MIA”) through the infrapatellar ligament. […] The rats were further administered either a GABA analog or vehicle (in the instant case, water) daily for 14 days. The GABA analog was typically administered at a dose of 30 mg of GABA analog per kilogram of rat per day (30 mg/kg/day), but may be administered at other doses such as, for example, 10 mg/kg/day, 60 mg/kg/day, or 100 mg/kg/day according to the requirements of the compound being studied. It is well within the level of ordinary skill in the pharmaceutical arts to determine a proper dosage of a GABA analog in this model. In the instant experiment, administration of the GABA analog was optionally by oral administration or intravenous administration via an osmotic pump. After 7 and 14 days, the hind-paw weight distribution was again determined. […] Percent inhibition of cartilage damage was calculated as the percent change in hind-paw weight distribution for treated animals versus control animals:
[formula] wherein: ΔWC is the hind-paw weight differential between the healthy left limb and the arthritic limb of the control animal administered vehicle alone, as measured on Day 14; and • ΔWG is the hind-paw weight differential between the healthy left limb and the arthritic limb of the animal administered a GABA analog, as measured on Day 14.
The results of the hind-paw weight distribution data are shown below in Table 5 in the column labelled “% Inhibition”.

[2] = system: Monosodium Iodoacetate-Induced Osteoarthritis in Rat; assay: MIA Rat: free proteoglycan in knee joint; format: in vivo; details: for treatment of cartilage damage (conclusion from Table 6): MIA Rat, osmotic pump 30 mg/kg/day; for Proteoglycan loss (%) / Inhibition of Proteoglycan loss (%): intravenously by osmotic pump 30 mg/kg/day; for Proteoglycan loss (%): osteoarthritic right knee joint vs contralateral left knee joint, vehicle 18.10 (1b) and 31.90 (2b); for Inhibition of Proteoglycan loss (%): versus vehicle (water)
Text: The incapacitance tester has a chamber on top with an outwardly sloping front wall that supports a rat's front limbs, and two weight sensing pads, one for each hind paw, that facilitates this determination. […] The rats were further administered either a GABA analog or vehicle (in the instant case, water) daily for 14 days. […] It is well within the level of ordinary skill in the pharmaceutical arts to determine a proper dosage of a GABA analog in this model. In the instant experiment, administration of the GABA analog was optionally by oral administration or intravenous administration via an osmotic pump. After 7 and 14 days, the hind-paw weight distribution was again determined. […] Percent inhibition of cartilage damage was calculated as the percent change in hind-paw weight distribution for treated animals versus control animals: In order to measure biochemical or histopathological end points in the MIA Rat model, some of the animals in the above study were then sacrificed, and the amounts of free proteoglycan in both the osteoarthritic right knee joint and the contralateral left knee joint were determined by biochemical analysis. The amount of free proteoglycan in the contralateral left knee joint provides a baseline value for the amount of free proteoglycan in a healthy joint. The amount of proteoglycan in the osteoarthritic right knee joint in animals further administered a GABA analog, and the amount of proteoglycan in the osteoarthritic right knee joint in animals further administered vehicle alone, were independently compared to the amount of proteoglycan in the contralateral left knee joint. The amounts of proteoglycan lost in the osteoarthritic right knee joints were expressed as percent loss of proteoglycan compared to the contralateral left knee joint control. The results are shown below in Table 6 in the column labelled, “Proteoglycan loss (%)”. Also shown in Table 6, in the column labelled “Inhibition of Proteoglycan loss (%)”, is the percent inhibition of proteoglycan loss, which was calculated as {[(proteoglycan loss from joint (%) with vehicle)−(proteoglycan loss from joint with GABA analog)]÷(proteoglycan loss from joint (%) with vehicle)}×100.

[3] = system: Experimental Osteoarthritis in Rabbit; assay: EOA in Rabbit: histologic grading of cartilage lesions (Mankin scale); format: in vivo; details: for Cells (0–3) / Safranin-O Staining (0–4) / Structure (0–6) / Total (0–13): 150 mg/kg/po/day, 8 weeks after surgery, mean ± SEM
Procedure: (§1) Normal rabbits were anaesthetized and anteromedial incisions of the right knees performed. The anterior cruciate ligaments were visualized and sectioned. The wounds were closed and the animals were housed in individual cages, exercised, and fed ad libitum. Rabbits were given either vehicle (water), gabapentin, or 3-(1-aminomethyl-cyclohexylmethyl)-4h-[1,2,4]oxadiazol-5-one hydrochloride (10 rabbits per group). Each group was dosed three times per day with the gabapentin group receiving 100-mg/kg/dose and the 3-(1-aminomethyl-cyclohexylmethyl)-4h-[1,2,4]oxadiazol-5-one hydrochloride group receiving 50-mg/kg/dose. The rabbits were euthanized 8 weeks after surgery and the proximal end of the tibia and the distal end of the femur were removed from each animal.
Histologic evaluation was performed on sagittal sections of cartilage from the lesional areas of the femoral condyle and tibial plateau. Serial sections (5 um) were prepared and stained with safranin-O. The severity of OA lesions was graded on a scale of 0–14 by two independent observers using the histologic-histochemical scale of Mankin et al. This scale evaluates the severity of OA lesions based on the loss of safranin-O staining (scale 0–4), cellular changes (scale 0–3), invasion of tidemark by blood vessels (scale 0–1) and structural changes (scale 0–6). On this latter scale, 0 indicates normal cartilage structure and 6 indicates erosion of the cartilage down to the subchondral bone. The scoring system was based on the most severe histologic changes in the multiple sections.
(§2) Mean values and SEM was calculated and statistical analysis was done using the Mann-Whitney U-test.

[4] = system: Experimental Osteoarthritis in Rabbit; assay: EOA in Rabbit: macroscopic grading of cartilage lesions; format: in vivo
Procedure: as §1
The cartilage changes on the femoral condyles and tibial plateaus were graded separately under a dissecting microscope (Stereozoom, Bausch & Lomb, Rochester, N.Y.). The depth of erosion was graded on a scale of 0 to 4 as follows: grade 0=normal surface; Grade 1=minimal fibrillation or a slight yellowish discoloration of the surface; Grade 2=erosion extending into superficial or middle layers only; Grade 3=erosion extending into deep layers; Grade 4=erosion extending to subchondral bone. The surface area changes was measured and expressed in mm^2. Representative specimens will also be used for histologic grading (see below).
as §2

[5] = system: Experimental Osteoarthritis in Rabbit; assay: EOA in Rabbit: histological grading of synovial membrane; format: in vivo; details: 150 mg/kg/po/day, 8 weeks after surgery, mean ± SEM
Procedure: as §1
Representative specimens of synovial membrane from the medial and lateral knee compartments were dissected from underlying tissues. The specimens were fixed, embedded, and sectioned (5 um) as above, and stained with hematoxylin-eosin. For each compartment, two synovial membrane specimens were examined for scoring purposes and the highest score from each compartment was retained. The average was calculated and considered as a unit for the whole knee. The severity of synovitis was graded on a scale of 0 to 10 by two independent observers, adding the scores of 3 histologic criteria: synovial lining cell hyperplasia (scale 0–2); villous hyperplasia (scale 0–3); and degree of cellular infiltration by mononuclear and polymorphonuclear cells (scale 0–5): 0 indicates normal structure.
as §2

[6] = 30 mg/kg oral, twice daily dosing of the indicated dose
[7] = daily dose 30 mg/kg, osmotic pump
[8] = 50 mg/kg/dose three times per day, 8 weeks, Table 1

## CS(=O)(=O)NCCC1(CN)CCCCC1.Cl
other
  melting point: 196 to 199 °C

## CC(C)CC(CN)Cc1noc(=S)[nH]1.Cl (stereo not drawn)
other
  melting point: 183 to 185 °C

## Cl.NCC1(Cc2noc(=S)[nH]2)CCCCC1
other
  melting point: 210 to 212 °C

## CCCC(C(C)C)C(CN)CC(=O)O (stereo not drawn) (as salt: HCl)
other
  melting point: 160 to 170 °C

## Cl.NCC1(Cc2noc(=O)[nH]2)CCCCC1 [3-(1-Aminomethyl-cyclohexylmethyl)-4H-[1,2,4]oxadiazol-5-one; hydrochloride]
[1]; [6]
  % Inhibition (of cartilage damage, hind-paw weight distribution): 47 ± 20%
[1]
  preventing or treating cartilage damage (conclusion from Table 5): effective
[1]; [7]
  % Inhibition (of cartilage damage, hind-paw weight distribution): 46 ± 10%
[2]
  treatment of cartilage damage (conclusion from Table 6): effective
  Proteoglycan loss (%): 6.70%
  Inhibition of Proteoglycan loss (%): 63%
[3]; 50 mg/kg/dose three times per day, 8 weeks, text on Table 2 and 3
  histologic damage (in words): reduced histologic damage
[3]; Femoral Condyles
  Cells (0–3): 1.60 ± 0.2
  Safranin-O Staining (0–4): 1.25 ± 0.3
[3]; Femoral Condyles, p < 0.01
  Structure (0–6): 1.35 ± 0.3
[3]; Femoral Condyles, p < 0.04
  Total (0–13): 4.20 ± 0.6
[3]; Tibial Plateaus
  Cells (0–3): 0.60 ± 0.2
  Safranin-O Staining (0–4): 0.18 ± 0.1
  Structure (0–6): 0.90 ± 0.2
[3]; Tibial Plateaus, p > 0.02
  Total (0–13): 1.77 ± 0.4
[4]; [8]
  damage score for both the femoral condyles and the tibial plateaus (in words): reduced
  lesion size on the plateaus (in words): reduced
[4]; 150 mg/kg/po/day (50 mg/kg/dose three times per day), 8 weeks after surgery, mean ± SEM
  Femoral Condyles Size: 6.93 ± 3.1 mm^2
[4]; 150 mg/kg/po/day (50 mg/kg/dose three times per day), 8 weeks after surgery, mean ± SEM, p < 0.002
  Tibial Plateaus Size: 1.95 ± 0.8 mm^2
[4]; 150 mg/kg/po/day (50 mg/kg/dose three times per day), 8 weeks after surgery, mean ± SEM, p < 0.02
  Tibial Plateaus Grade (0–4): 0.55 ± 0.2
[4]; 150 mg/kg/po/day (50 mg/kg/dose three times per day), 8 weeks after surgery, mean ± SEM, p < 0.04
  Femoral Condyles Grade (0–4): 0.67 ± 0.2
[4]; gabapentin 100 mg/kg/dose, test compound 50 mg/kg/dose, three times per day, 8 weeks
  treatment of cartilage damage (conclusion from the EOA in Rabbit study): effective
[5]
  Cellular Infiltration (0–5 Scale): 0.35 ± 0.2
  Synovial Lining (0–2 Scale): 0.85 ± 0.1
[5]; p < 0.001
  Villous Hyperplasia (0–3 Scale): 1.15 ± 0.1
[5]; p < 0.002
  Total (0–10): 2.35 ± 0.3

## Cl.NCC1(Cc2noc(=O)[nH]2)CCCCCC1 [3-(1-aminomethyl-cycloheptylmethyl)-4H-[1,2,4]oxadiazol-5-one hydrochloride]
[1]
  preventing or treating cartilage damage (conclusion from Table 5): effective
[1]; [7]
  % Inhibition (of cartilage damage, hind-paw weight distribution): 62 ± 8%

## CC(C)CC(CN)Cc1noc(=O)[nH]1.Cl (stereo not drawn) [3-(2-Aminomethyl-4-methyl-pentyl)-4H-[1,2,4]oxadiazole-5-one; HCl]
[1]
  preventing or treating cartilage damage (conclusion from Table 5): effective
[1]; [7]
  % Inhibition (of cartilage damage, hind-paw weight distribution): 35 ± 8%

## Cl.NCC(c1noc(=O)[nH]1)C1CCCC1 (stereo not drawn) [3-(2-amino-1-cyclopentyl-ethyl)-4H-[1,2,4]oxadiazol-5-one hydrochloride]
[1]
  preventing or treating cartilage damage (conclusion from Table 5): effective
[1]; [7]
  % Inhibition (of cartilage damage, hind-paw weight distribution): 104%

## Cl.NCC1(CC(=O)O)CC2CCC2C1 (stereo not drawn) [(1α,3α,5α)(3-Aminomethyl-bicyclo[3.2.0]hept-3-yl)-acetic acid hydrochloride]
[1]; [7]
  % Inhibition (of cartilage damage, hind-paw weight distribution): −3 ± 34%
[2]
  treatment of cartilage damage (conclusion from Table 6): effective
  Proteoglycan loss (%): 16.60%
  Inhibition of Proteoglycan loss (%): 48%

## NCC1(Cc2nnn[nH]2)CCCCCC1 [C-[1-(1H-tetrazol-5-ylmethyl)-cycloheptyl]-methylamine]
[1]; [7]
  % Inhibition (of cartilage damage, hind-paw weight distribution): −33 ± 17%

## CC(C)C[C@H](CN)CC(=O)O [Pregabalin, (S)-3-(aminomethyl)-5-methylhexanoic acid, reference compound]
[1]; [6]
  % Inhibition (of cartilage damage, hind-paw weight distribution): −3 ± 12%
